For one assay, the target named is T1, human COX-2 (Homo sapiens, UniProt P35354).
T1 construct: purchased Cayman chemical 60122
T1 sequence (P35354 18-604): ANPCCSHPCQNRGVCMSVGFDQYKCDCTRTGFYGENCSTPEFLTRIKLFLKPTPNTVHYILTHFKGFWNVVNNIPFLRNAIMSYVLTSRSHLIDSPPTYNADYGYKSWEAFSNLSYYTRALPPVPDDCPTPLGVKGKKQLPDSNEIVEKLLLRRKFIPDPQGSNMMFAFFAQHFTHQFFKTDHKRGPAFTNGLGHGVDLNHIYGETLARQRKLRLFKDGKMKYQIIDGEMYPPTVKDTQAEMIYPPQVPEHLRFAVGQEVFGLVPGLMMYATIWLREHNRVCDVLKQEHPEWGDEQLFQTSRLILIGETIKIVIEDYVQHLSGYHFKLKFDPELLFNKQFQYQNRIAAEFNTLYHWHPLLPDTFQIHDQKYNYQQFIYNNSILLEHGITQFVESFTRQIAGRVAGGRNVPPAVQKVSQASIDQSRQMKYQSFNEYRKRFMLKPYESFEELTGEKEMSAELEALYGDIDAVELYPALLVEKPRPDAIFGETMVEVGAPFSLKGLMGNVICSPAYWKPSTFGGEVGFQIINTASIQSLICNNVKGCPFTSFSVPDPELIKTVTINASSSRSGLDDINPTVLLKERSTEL
The assay is described as follows: Cyclooxygenase assay (oxygen electrode), COX-2. The format is biochemical. Particulars: 100 µM AA, pH 8.0, 37°C, oxygen consumption. Here is the method:
Ovine COX-1 (Cat. No. 60100) and human COX-2 (Cat. No. 60122) were purchased from Cayman chemical. Approximately 2 µg of either COX-1 or COX-2 were added to buffer containing 100 µM AA, 0.1 M Tris-HCl buffer (pH 8.0), 5 mM EDTA, 2 mM phenol and 1 µM hematin at 37°C. Data was collected using a Hansatech DW1 oxygen electrode chamber, as described before. Inhibitor or vehicle were mixed with the respective COX in buffer within the electrode cell, the reaction was initiated by the addition of AA, followed by monitoring of rate of oxygen consumption. Ibuprofen, aspirin and indomethacin, and the carrier solvent, DMSO, were used as positive and negative controls, respectively.

Assay [1] deals with T2, Human leukocyte 5-lipoxygenase (Homo sapiens, UniProt P09917).
T2 construct: made in house
T2 sequence (P09917 1-674): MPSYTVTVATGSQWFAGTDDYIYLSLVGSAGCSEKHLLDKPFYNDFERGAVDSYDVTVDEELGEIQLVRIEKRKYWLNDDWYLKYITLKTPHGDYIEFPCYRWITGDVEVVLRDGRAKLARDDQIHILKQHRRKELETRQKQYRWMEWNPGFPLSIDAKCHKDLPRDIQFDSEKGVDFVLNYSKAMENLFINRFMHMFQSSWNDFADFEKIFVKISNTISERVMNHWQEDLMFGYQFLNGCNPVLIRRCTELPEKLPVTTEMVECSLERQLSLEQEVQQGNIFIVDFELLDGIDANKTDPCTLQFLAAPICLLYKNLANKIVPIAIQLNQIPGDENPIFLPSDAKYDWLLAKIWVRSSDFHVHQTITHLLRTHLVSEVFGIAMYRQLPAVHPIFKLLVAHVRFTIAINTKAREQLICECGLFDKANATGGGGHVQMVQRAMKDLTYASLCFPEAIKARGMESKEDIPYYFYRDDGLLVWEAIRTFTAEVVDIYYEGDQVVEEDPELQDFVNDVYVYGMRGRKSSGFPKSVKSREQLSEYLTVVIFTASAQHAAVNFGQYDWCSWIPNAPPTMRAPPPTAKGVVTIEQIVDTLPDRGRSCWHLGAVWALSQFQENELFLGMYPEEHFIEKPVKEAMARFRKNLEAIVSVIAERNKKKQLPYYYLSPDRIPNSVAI
The conditions noted are these: [13], cited from earlier work.

The target in assay [2] is T3, C. albicans CYP51 (CaCYP51) (Candida albicans, UniProt P10613).
T3 construct: made in house; host or cells: E. coli
T3 sequence (P10613 whole entry): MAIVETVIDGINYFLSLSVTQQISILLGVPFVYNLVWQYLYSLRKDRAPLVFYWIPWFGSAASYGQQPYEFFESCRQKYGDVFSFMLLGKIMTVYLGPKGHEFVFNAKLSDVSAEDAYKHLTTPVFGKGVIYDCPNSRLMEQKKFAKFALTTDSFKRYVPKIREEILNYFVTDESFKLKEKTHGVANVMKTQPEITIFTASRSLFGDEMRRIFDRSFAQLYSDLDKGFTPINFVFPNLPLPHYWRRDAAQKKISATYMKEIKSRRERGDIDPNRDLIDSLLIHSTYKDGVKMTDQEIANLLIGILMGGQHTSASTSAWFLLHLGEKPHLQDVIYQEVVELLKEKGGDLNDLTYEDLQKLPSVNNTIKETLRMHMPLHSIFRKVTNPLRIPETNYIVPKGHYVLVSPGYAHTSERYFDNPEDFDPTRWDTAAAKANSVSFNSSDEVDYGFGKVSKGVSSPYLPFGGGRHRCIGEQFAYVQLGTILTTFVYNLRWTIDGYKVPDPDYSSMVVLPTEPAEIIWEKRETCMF
Nature of the assay: biochemical. The format is binding. As to the method: (§1) Native cytochrome P450 concentrations were determined by reduced carbon monoxide difference spectra, based on an extinction coefficient of 91 mM^−1 cm^−1 [42], [43]. Binding of azole antifungal agents to 5 µM CaCYP51 and 5 µM HsCYP51 were performed as previously described, [44], using 0.25 and 0.5 mg mL^−1 stock solutions of ketoconazole and ketaminazole in DMSO. Azole antifungal agents were progressively titrated against the CYP51 protein in 0.1 M Tris-HCl (pH 8.1) and 25% (wt/vol) glycerol, with the spectral difference determined after each incremental addition of azole. The dissociation constant (Kd) of the enzyme-azole complex was determined by nonlinear regression (Levenberg-Marquardt algorithm) of ΔA peak-trough against azole concentration using a rearrangement of the Morrison equation [45] and fitted by the computer program ProFit 6.1.12 (QuantumSoft, Zurich, Switzerland).

In assay [3] the target is T4, Homo sapiens CYP51 (HsCYP51) (Homo sapiens, UniProt Q16850).
T4 construct: made in house; host or cells: E. coli
T4 sequence (Q16850 1-509): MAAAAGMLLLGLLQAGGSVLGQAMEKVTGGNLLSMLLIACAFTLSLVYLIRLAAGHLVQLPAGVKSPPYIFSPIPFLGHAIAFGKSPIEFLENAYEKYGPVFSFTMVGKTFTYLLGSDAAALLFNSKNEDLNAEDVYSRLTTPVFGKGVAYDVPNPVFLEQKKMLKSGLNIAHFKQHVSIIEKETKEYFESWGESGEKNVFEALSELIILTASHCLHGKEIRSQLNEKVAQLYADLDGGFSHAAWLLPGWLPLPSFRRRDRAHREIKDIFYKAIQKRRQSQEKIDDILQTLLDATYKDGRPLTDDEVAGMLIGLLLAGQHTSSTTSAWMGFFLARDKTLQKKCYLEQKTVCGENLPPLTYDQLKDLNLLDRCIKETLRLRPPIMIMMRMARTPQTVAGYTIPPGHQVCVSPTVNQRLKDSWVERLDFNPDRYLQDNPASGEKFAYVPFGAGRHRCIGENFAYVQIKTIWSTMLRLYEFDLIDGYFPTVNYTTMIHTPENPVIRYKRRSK
Nature of the assay: Azole binding to HsCYP51 (type II difference spectra titration). The conditions noted are these: for Kd: 5 µM HsCYP51, Morrison equation. As to the method:
as §1

In a further assay the target is T5, CaCYP51 (Candida albicans, UniProt P10613).
T5 construct: made in house; host or cells: E. coli
T5 sequence (P10613 whole entry): as the sequence (P10613 whole entry) above
The assay is described as follows: CYP51 reconstitution assay, CaCYP51. The format is biochemical. Here is the method: (§2) Azole antifungal agents were added in 5 µL DMSO followed by incubation for 5 minutes at 37°C prior to assay initiation with 4 mM β-NADPHNa4, with shaking for a further 10 minutes at 37°C. Sterol metabolites were recovered by extraction with ethyl acetate followed by derivatization with N,O-bis(trimethylsilyl)trifluoroacetamide and […] prior to analysis by gas chromatography mass spectrometry.

A further assay deals with T6, HsCYP51 (Homo sapiens, UniProt Q16850).
T6 construct: made in house; host or cells: E. coli
T6 sequence (Q16850 1-509): T4 sequence (Q16850 1-509)
Nature of the assay: CYP51 reconstitution assay, HsCYP51. Type of assay: biochemical. The conditions noted are these: for IC50: 0.3 µM HsCYP51, 50 µM lanosterol. As to the method: as §2

Read-outs that look alike come from different tables or passages of the source. A value given as a limit tells only on which side of the number the result lay.

Take `Cc1cc(C2CCCCC2)n(O)c(=O)c1` [ciclopirox, reference compound]: the IC50 (in general, the concentration that gives 50% inhibition) on human COX-2 is > 150000 nM.
With `CC[C@](O)(c1nnc(NCc2ccc3c(-c4ccc(F)cc4)cc(=O)oc3c2)o1)C(F)(F)F` [setileuton, reference compound], in assay [1] (ref [2], read-out: 5-LOX IC50, literature value), the IC50 is 45 ± 10 nM.
`CC(=O)N1CCN(c2ccc(NCc3ccc(-c4cccc(Cl)c4)o3)cc2)CC1` [Compound 13]: the IC50 on human COX-2 is > 150000 nM.
Turning to `CC(=O)N1CCN(c2ccc(OCC3COC(Cn4ccnc4)(c4ccc(Cl)cc4Cl)O3)cc2)CC1` (centres unmarked) [ketoconazole, reference compound], the IC50 against human COX-2 was > 150000 nM; at CaCYP51, ~500 nM; on HsCYP51, ~5000 nM; in assay [1] (read-out: 5-LOX IC50, ref [12]), > 50000 nM. Also, the Kd (usually the free concentration of one partner at which half of the binding sites on the other are occupied at equilibrium, for simple one-to-one binding) was 27 ± 5 nM in assay [2] and 42 ± 16 nM in assay [3]. Besides, the “fold difference in binding to CaCYP51 compared to ketaminazole (16)” value in assay [2] (ratio of Kd values) amounted to 1.6 fold. Also, in assay [3] (ratio of Kd values), the “fold tighter binding to HsCYP51 compared to ketaminazole (16)” value was 17 fold. In addition, the “HsCYP51 activity, in words” value at HsCYP51 (at 95 µM compound) is given as “inactivated”.
As to `CC(C)(C)OC(=O)N1CCN(c2ccc(NCc3ccc(-c4ccc(C#N)cc4)o3)cc2)CC1` [Compound 1], the IC50 on human COX-2 is > 150000 nM.
With `CC(=O)N1CCN(c2ccc(NCC3COC(Cn4ccnc4)(c4ccc(Cl)cc4Cl)O3)cc2)CC1` (centres unmarked) [ketaminazole (16), ketaminazole], the IC50 was > 150000 nM against human COX-2; 43 nM in assay [2] (in vitro); ~900 nM on CaCYP51 (1 µM CaCYP51, 50 µM lanosterol, read-out: CaCYP51 IC50); ~16000 nM on HsCYP51. Further, the Kd in assay [2] (5 µM CaCYP51, Morrison equation, read-out: Kd with CaCYP51) stood at 43 ± 5 nM; in assay [3] it was 731 ± 69 nM. In assay [3] (yeast vs human CYP51), the “selectivity for yeast CYP51 relative to human CYP51” value is recorded as 17 fold. Moreover, the CYP51 activity retained on CaCYP51 (CaCYP51, at 4 µM compound) is ~15%. Also, the remaining activity (in general, the signal under treatment as a percentage of the control signal) at 155 µM on HsCYP51 (HsCYP51, at 155 µM compound) is ~30%. In addition, on HsCYP51 (ratio of IC50 values), the “fold higher IC50 over ketoconazole with HsCYP51” value was 3 fold.

The values are drawn from publication PMC3691235, “Discovery of a Novel Dual Fungal CYP51/Human 5-Lipoxygenase Inhibitor: Implications for Anti-Fungal Therapy” (PLoS ONE, 2013).
